PubChem BioAssay (NCI)
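Each compound was tested at five concentrations against cells in 96-well plates for 48 hours. GI50 is the concentration that inhibits growth by half. At the TGI there is no net growth.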

How the values were obtained:
Assay in all cases: inhibition of tumour cell growth, NCI panel, 48 h
SF-295 CNS = system: SF-295 CNS
SK-MEL-2 melanoma = system: SK-MEL-2 melanoma
DU-145 prostate = system: DU-145 prostate
MCF7 breast = system: MCF7 breast
IGROV1 ovarian = system: IGROV1 ovarian
A498 renal = system: A498 renal
RXF 393 renal = system: RXF 393 renal
SK-MEL-5 melanoma = system: SK-MEL-5 melanoma
BT-549 breast = system: BT-549 breast
RPMI-8226 leukemia = system: RPMI-8226 leukemia
SF-539 CNS = system: SF-539 CNS
HS 578T breast = system: HS 578T breast
PC-3 prostate = system: PC-3 prostate
CAKI-1 renal = system: CAKI-1 renal
SR leukemia = system: SR leukemia
HOP-92 NSCLC = system: HOP-92 NSCLC
CCRF-CEM leukemia = system: CCRF-CEM leukemia
OVCAR-4 ovarian = system: OVCAR-4 ovarian
NCI-H460 lung = system: NCI-H460 lung
NCI-H23 lung = system: NCI-H23 lung
786-0 renal = system: 786-0 renal
ACHN renal = system: ACHN renal
MALME-3M melanoma = system: MALME-3M melanoma
MDA-MB-435 = system: MDA-MB-435
SNB-19 CNS = system: SNB-19 CNS
OVCAR-5 ovarian = system: OVCAR-5 ovarian
HCT-15 colon = system: HCT-15 colon
TK-10 renal = system: TK-10 renal
M14 melanoma = system: M14 melanoma
OVCAR-8 ovarian = system: OVCAR-8 ovarian
SNB-75 CNS = system: SNB-75 CNS
EKVX NSCLC = system: EKVX NSCLC
UACC-62 melanoma = system: UACC-62 melanoma
SW-620 colon = system: SW-620 colon
HCC-2998 colon = system: HCC-2998 colon
SN12C renal = system: SN12C renal
LOX IMVI melanoma = system: LOX IMVI melanoma
SF-268 CNS = system: SF-268 CNS
KM12 colon = system: KM12 colon
UACC-257 melanoma = system: UACC-257 melanoma
K-562 leukemia = system: K-562 leukemia
UO-31 renal = system: UO-31 renal
SK-MEL-28 melanoma = system: SK-MEL-28 melanoma
NCI/ADR-RES ovarian = system: NCI/ADR-RES ovarian
MDA-MB-231 breast = system: MDA-MB-231 breast
OVCAR-3 ovarian = system: OVCAR-3 ovarian

What does the source list for `Cc1cccc(Oc2ccc(Nc3ncnc4ccc(NC(=O)CN5CCN(C)CC5)cc34)cc2Cl)c1`?
GI50 (SF-295 CNS): 1830 nM; TGI (SF-295 CNS): 3390 nM; GI50 (SK-MEL-2 melanoma): 1870 nM; TGI (SK-MEL-2 melanoma): 3640 nM; GI50 (DU-145 prostate): 1180 nM; TGI (DU-145 prostate): 2570 nM; GI50 (MCF7 breast): 1510 nM; TGI (MCF7 breast): 2990 nM; GI50 (IGROV1 ovarian): 673 nM; TGI (IGROV1 ovarian): 2380 nM; GI50 (A498 renal): 1060 nM; TGI (A498 renal): 2280 nM; GI50 (RXF 393 renal): 1610 nM; TGI (RXF 393 renal): 3090 nM; GI50 (SK-MEL-5 melanoma): 1640 nM; TGI (SK-MEL-5 melanoma): 3030 nM; GI50 (BT-549 breast): 1450 nM; TGI (BT-549 breast): 2810 nM; GI50 (RPMI-8226 leukemia): 1760 nM; TGI (RPMI-8226 leukemia): 4390 nM; GI50 (SF-539 CNS): 1730 nM; TGI (SF-539 CNS): 3190 nM; GI50 (HS 578T breast): 1770 nM; TGI (HS 578T breast): 4280 nM; GI50 (PC-3 prostate): 1780 nM; TGI (PC-3 prostate): 3520 nM; GI50 (CAKI-1 renal): 1190 nM; TGI (CAKI-1 renal): 2660 nM; GI50 (SR leukemia): 1720 nM; TGI (SR leukemia): 5320 nM; GI50 (HOP-92 NSCLC): 1170 nM; TGI (HOP-92 NSCLC): 2590 nM; GI50 (CCRF-CEM leukemia): 2060 nM; TGI (CCRF-CEM leukemia): 5210 nM; GI50 (OVCAR-4 ovarian): 1720 nM; TGI (OVCAR-4 ovarian): 4300 nM; GI50 (NCI-H460 lung): 1750 nM; TGI (NCI-H460 lung): 3280 nM; GI50 (NCI-H23 lung): 1740 nM; TGI (NCI-H23 lung): 3490 nM; GI50 (786-0 renal): 1590 nM; TGI (786-0 renal): 2990 nM; GI50 (ACHN renal): 655 nM; TGI (ACHN renal): 1960 nM; GI50 (MALME-3M melanoma): 1590 nM; TGI (MALME-3M melanoma): 3160 nM; GI50 (MDA-MB-435): 1590 nM; TGI (MDA-MB-435): 2990 nM; GI50 (SNB-19 CNS): 1950 nM; TGI (SNB-19 CNS): 4790 nM; GI50 (OVCAR-5 ovarian): 1660 nM; TGI (OVCAR-5 ovarian): 3200 nM; GI50 (HCT-15 colon): 1350 nM; TGI (HCT-15 colon): 2760 nM; GI50 (TK-10 renal): 701 nM; TGI (TK-10 renal): 2240 nM; GI50 (M14 melanoma): 1720 nM; TGI (M14 melanoma): 3380 nM; GI50 (OVCAR-8 ovarian): 2110 nM; TGI (OVCAR-8 ovarian): 5680 nM; GI50 (SNB-75 CNS): 1440 nM; TGI (SNB-75 CNS): 2810 nM; GI50 (EKVX NSCLC): 1120 nM; TGI (EKVX NSCLC): 2640 nM; GI50 (UACC-62 melanoma): 1840 nM; TGI (UACC-62 melanoma): 3560 nM; GI50 (SW-620 colon): 1690 nM; TGI (SW-620 colon): 3270 nM; GI50 (HCC-2998 colon): 1580 nM; TGI (HCC-2998 colon): 3040 nM; GI50 (SN12C renal): 1720 nM; TGI (SN12C renal): 3440 nM; GI50 (LOX IMVI melanoma): 1700 nM; TGI (LOX IMVI melanoma): 3180 nM; GI50 (SF-268 CNS): 1460 nM; TGI (SF-268 CNS): 3160 nM; GI50 (KM12 colon): 1740 nM; TGI (KM12 colon): 3240 nM; GI50 (UACC-257 melanoma): 1900 nM; TGI (UACC-257 melanoma): 3850 nM; GI50 (K-562 leukemia): 1610 nM; TGI (K-562 leukemia): 4330 nM; GI50 (UO-31 renal): 1100 nM; TGI (UO-31 renal): 2350 nM; GI50 (SK-MEL-28 melanoma): 1740 nM; TGI (SK-MEL-28 melanoma): 3200 nM; GI50 (NCI/ADR-RES ovarian): 1730 nM; TGI (NCI/ADR-RES ovarian): 4240 nM; GI50 (MDA-MB-231 breast): 1660 nM; TGI (MDA-MB-231 breast): 3170 nM; GI50 (OVCAR-3 ovarian): 1420 nM; TGI (OVCAR-3 ovarian): 2990 nM
